Reference: patent US20250145633A1, “SUBSTITUTED FURANOPYRIMIDINE COMPOUNDS AS PDE1 INHIBITORS” (Dart NeuroScience, LLC, priority 2017, published 2025)

These molecules were tested against human PDE1B enzyme (Homo sapiens (Human), UniProt Q01064) (assay: IMAP TR-FRET PDE1B enzymatic assay). Conditions: negative log of half-maximal molar inhibitory concentration; 200 nM FAM-cAMP; values given as bins.
Format: biochemical
Outline: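 Full-length GST-tagged human PDE1B (250 pg/well) in IMAP BSA buffer with 10 U/ml calmodulin and 2.5 mM CaCl2; compound pre-incubated 5 min at room temperature, then 200 nM (final) FAM-cAMP for 30 min. IMAP binding reagent/Tb added, 1 h; TR-FRET 520/490 ratio read. IC50 from sigmoidal dose-response fit.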

Structure (SMILES)	PDE1b (pIC50)
Cc1oc2ncnc(NC3(C)CC3)c2c1C(=O)N1CCOC(c2ccc(F)cc2)C1 (stereo not drawn) [Example 122, 5-[2-(4-Fluorophenyl)morpholine-4-carbonyl]-6-methyl-N-(1-methylcyclopropyl)furo[2,3-d]pyrimidin-4-amine]	>8
COC1(c2ccccc2)CN(C(=O)c2c(C)oc3ncnc(NC4(C)CC4)c23)C1 [Example 103, 5-(3-Methoxy-3-phenylazetidine-1-carbonyl)-6-methyl-N-(1-methylcyclopropyl)furo[2,3-d]pyrimidin-4-amine]	>8
Cc1oc2ncnc(NC3(C)CC3)c2c1C(=O)N1CCC(F)(c2ccccn2)CC1 [Example 62, 5-[4-Fluoro-4-(pyridin-2-yl)piperidine-1-carbonyl]-6-methyl-N-(1-methylcyclopropyl)furo[2,3-d]pyrimidin-4-amine]	>8
Cc1oc2ncnc(NC3(C)CC3)c2c1C(=O)N1CCC(c2cccc(C(F)(F)F)n2)C1 (stereo not drawn) [Example 801, 6-Methyl-N-(1-methylcyclopropyl)-5-f{3-[6-(trifluoromethyl)pyridin-2-yl]pyrrolidine-1-carbonyl}furo[2,3-d]pyrimidin-4-amine]	>8
Cc1oc2ncnc(NC3(C)CC3)c2c1C(=O)N1CCNC(c2ccc(F)cc2)C1 (stereo not drawn) [Example 536, 5-[3-(4-Fluorophenyl)piperazine-1-carbonyl]-6-methyl-N-(1-methylcyclopropyl)furo[2,3-d]pyrimidin-4-amine]	>8
Cc1oc2ncnc(NC3(C)CC3)c2c1C(=O)N1CCC2(CC1)SCc1ccccc12 [Example 388, 6-Methyl-N-(1-methylcyclopropyl)-5-(f{3H-spiro[2-benzothiophene-1,4′-piperidine]-1′-yl}carbonyl)furo[2,3-d]pyrimidin-4-amine]	>8
COc1ccc(CNC(=O)c2c(C)oc3ncnc(NC4(C)CC4)c23)cn1 [Example 54, N-[(6-Methoxypyridin-3-yl)methyl]-6-methyl-4-[(1-methylcyclopropyl)amino]furo[2,3-d]pyrimidine-5-carboxamide]	>8
COc1nc(C(C)C)nc2c1CCN(C(=O)c1c(C)oc3ncnc(NC4(C)CC4)c13)C2 [Example 27, 5-[4-Methoxy-2-(propan-2-yl)-5H,6H,7H,8H-pyrido[3,4-d]pyrimidine-7-carbonyl]-6-methyl-N-(1-methylcyclopropyl)furo[2,3-d]pyrimidin-4-amine]	>8
Cc1oc2ncnc(NC3(C)CC3)c2c1C(=O)N1CCC(F)(c2ccccc2)C1 (stereo not drawn) [Example 132, 5-(3-Fluoro-3-phenylpyrrolidine-1-carbonyl)-6-methyl-N-(1-methylcyclopropyl)furo[2,3-d]pyrimidin-4-amine]	>8
Cc1oc2ncnc(NC3(C)CC3)c2c1C(=O)N1CCC(c2cccc(Br)n2)C1 (stereo not drawn) [Example 372, 5-[3-(6-Bromopyridin-2-yl)pyrrolidine-1-carbonyl]-6-methyl-N-(1-methylcyclopropyl)furo[2,3-d]pyrimidin-4-amine]	>8
Cc1oc2ncnc(NC3(C)CC3)c2c1C(=O)N1CC=C(c2cnc(F)s2)CC1 [Example 783, 5-[4-(2-Fluoro-1,3-thiazol-5-yl)-1,2,3,6-tetrahydropyridine-1-carbonyl]-6-methyl-N-(1-methylcyclopropyl)furo[2,3-d]pyrimidin-4-amine]	>8

Same assay, conditions: negative log of half-maximal molar inhibitory concentration; 200 nM FAM-cAMP; values given as bins; read-out: PDE1b (pIC50) (converted)

Structure (SMILES)	IC50
Cc1oc2ncnc(NC3(C)CC3)c2c1C(=O)N1CCCC2(C1)C(=O)N(C)c1ccccc12 (stereo not drawn) [Example 376, 1-Methyl-1′-{6-methyl-4-[(1-methylcyclopropyl)amino]furo[2,3-d]pyrimidine-5-carbonyl}-1,2-dihydrospiro[indole-3,3′-piperidine]-2-one]	100 to 1000 nM
Cc1oc2ncnc(NC3(C)CC3)c2c1C(=O)N1CCc2c(cc[nH]c2=O)C1 [Example 337, 6-{6-Methyl-4-[(1-methylcyclopropyl)amino]furo[2,3-d]pyrimidine-5-carbonyl}-1,2,5,6,7,8-hexahydro-2,6-naphthyridin-1-one]	10 to 100 nM
Cc1nnc(CNC(=O)c2c(C)oc3ncnc(NC4(C)CC4)c23)s1 [Example 468, 6-Methyl-N-[(5-methyl-1,3,4-thiadiazol-2-yl)methyl]-4-[(1-methylcyclopropyl)amino]furo[2,3-d]pyrimidine-5-carboxamide]	10 to 100 nM
Cc1cc(N2CCC(NC(=O)c3c(C)oc4ncnc(NC5(C)CC5)c34)CC2)nc(C)n1 [Example 672, N-[1-(2,6-Dimethylpyrimidin-4-yl)piperidin-4-yl]-6-methyl-4-[(1-methylcyclopropyl)amino]furo[2,3-d]pyrimidine-5-carboxamide]	100 to 1000 nM
Cc1oc2ncnc(NC3(C)CC3)c2c1C(=O)N1CCN(c2ccc(F)nc2)CC1 [Example 282, 5-[4-(6-Fluoropyridin-3-yl)piperazine-1-carbonyl]-6-methyl-N-(1-methylcyclopropyl)furo[2,3-d]pyrimidin-4-amine]	10 to 100 nM
Cc1oc2ncnc(NC3(C)CC3)c2c1C(=O)NCc1ccnc(C2CC2)n1 [Example 689, N-[(2-Cyclopropylpyrimidin-4-yl)methyl]-6-methyl-4-[(1-methylcyclopropyl)amino]furo[2,3-d]pyrimidine-5-carboxamide]	10 to 100 nM
Cc1oc2ncnc(NC3(C)CC3)c2c1C(=O)Nc1ccc(-c2ccoc2)nc1 [Example 34, N-[6-(Furan-3-yl)pyridin-3-yl]-6-methyl-4-[(1-methylcyclopropyl)amino]furo[2,3-d]pyrimidine-5-carboxamide]	10 to 100 nM
CCCOc1ncnc2c1CCN(C(=O)c1c(C)oc3ncnc(NC4(C)CC4)c13)C2 [Example 806, 6-Methyl-N-(1-methylcyclopropyl)-5-f{4-propoxy-5H,6H,7H,8H-pyrido[3,4-d]pyrimidine-7-carbonyl}furo[2,3-d]pyrimidin-4-amine]	10 to 100 nM
Cc1oc2ncnc(NC3(C)CC3)c2c1C(=O)N1Cc2cc(C3CCOCC3)cnc2C1 [Example 748, 6-Methyl-N-(1-methylcyclopropyl)-5-[3-(oxan-4-yl)-5H,6H,7H-pyrrolo[3,4-b]pyridine-6-carbonyl]furo[2,3-d]pyrimidin-4-amine]	100 to 1000 nM
CCc1nc(C2CC2)n2c1CN(C(=O)c1c(C)oc3ncnc(NC4(C)CC4)c13)CC2 [Example 29, 5-{3-Cyclopropyl-1-ethyl-5H,6H,7H,8H-imidazo[1,5-a]pyrazine-7-carbonyl}-6-methyl-N-(1-methylcyclopropyl)furo[2,3-d]pyrimidin-4-amine]	100 to 1000 nM
CCN(Cc1ccc(OC)cc1)C(=O)c1c(C)oc2ncnc(NC3(C)CC3)c12 [Example 489, N-ethyl-N-[(4-Methoxyphenyl)methyl]-6-methyl-4-[(1-methylcyclopropyl)amino]furo[2,3-d]pyrimidine-5-carboxamide]	10 to 100 nM
Cc1oc2ncnc(NC3(C)CC3)c2c1C(=O)N1CCc2cnccc2C1 [Example 668, 6-Methyl-N-(1-methylcyclopropyl)-5-(1,2,3,4-tetrahydro-2,6-naphthyridine-2-carbonyl)furo[2,3-d]pyrimidin-4-amine]	10 to 100 nM
Cc1oc2ncnc(NC3(C)CC3)c2c1C(=O)NCCc1c[nH]c2ccc(F)cc12 [Example 207, N-[2-(5-Fluoro-1H-indol-3-yl)ethyl]-6-methyl-4-[(1-methylcyclopropyl)amino]furo[2,3-d]pyrimidine-5-carboxamide]	10 to 100 nM
Cc1oc2ncnc(NC3(C)CC3)c2c1C(=O)NCc1cccnc1F [Example 291, N-[(2-Fluoropyridin-3-yl)methyl]-6-methyl-4-[(1-methylcyclopropyl)amino]furo[2,3-d]pyrimidine-5-carboxamide]	10 to 100 nM
Cc1oc2ncnc(NC3(C)CC3)c2c1C(=O)NCC1CC1 [Example 746, N-(Cyclopropylmethyl)-6-methyl-4-[(1-methylcyclopropyl)amino]furo[2,3-d]pyrimidine-5-carboxamide]	10 to 100 nM
Cc1oc2ncnc(NC3(C)CC3)c2c1C(=O)NC1CCCc2cccnc21 (stereo not drawn) [Example 310, 6-Methyl-4-[(1-methylcyclopropyl)amino]-N-(5,6,7,8-tetrahydroquinolin-8-yl)furo[2,3-d]pyrimidine-5-carboxamide]	100 to 1000 nM
Cc1oc2ncnc(NC3(C)CC3)c2c1C(=O)NCc1cnc(F)cn1 [Example 9, N-((5-Fluoropyrazin-2-yl)methyl)-6-methyl-4-((1-methylcyclopropyl)amino)furo[2,3-d]pyrimidine-5-carboxamide]	10 to 100 nM
COc1ccc([C@H](C)NC(=O)c2c(C)oc3ncnc(NC4(C)CC4)c23)c(F)c1 [Example 305, N-[(1S)-1-(2-Fluoro-4-methoxyphenyl)ethyl]-6-methyl-4-[(1-methylcyclopropyl)amino]furo[2,3-d]pyrimidine-5-carboxamide]	10 to 100 nM
Cc1oc2ncnc(NC3(C)CC3)c2c1C(=O)N1Cc2cnc(C(F)(F)F)nc2C1 [Example 36, 6-Methyl-N-(1-methylcyclopropyl)-5-[2-(trifluoromethyl)-5H,6H,7H-pyrrolo[3,4-d]pyrimidine-6-carbonyl]furo[2,3-d]pyrimidin-4-amine]	100 to 1000 nM
Cc1oc2ncnc(NC3(C)CC3)c2c1C(=O)N1CCN(c2ccc(F)cc2S(C)(=O)=O)CC1 [Example 521]	10 to 100 nM
COc1ccc(CNC(=O)c2c(C)oc3ncnc(NC4(C)CC4)c23)nn1 [Example 711, N-[(6-Methoxypyridazin-3-yl)methyl]-6-methyl-4-[(1-methylcyclopropyl)amino]furo[2,3-d]pyrimidine-5-carboxamide]	10 to 100 nM
Cc1oc2ncnc(NC3(C)CC3)c2c1C(=O)N1CCOC(c2ccncc2)C1 (stereo not drawn) [Example 119, 6-Methyl-N-(1-methylcyclopropyl)-5-[2-(pyridin-4-yl)morpholine-4-carbonyl]furo[2,3-d]pyrimidin-4-amine]	100 to 1000 nM
